Bridge positions count the residues as written; N and C are the ends. Square brackets hold non-standard residues; d marks the D form. Peptide text beside a SMILES is read from it. Hyp = O=C(O)[C@@H]1C[C@@H](O)CN1
Tests used:
[1] = Physical stability of peptide analogues (Thioflavin T fibrillation); type: physicochemical; details: maximum ThT signal normalized between hAMY maximum and buffer background; 40° C., shaking, four days; pH 7 per table title
Procedure, shortened: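 Samples are stressed at 40 °C for four days, being shaken at 700 rpm before each 10-min fluorescence reading of 4 μM Thioflavin T. Buffers were pH 4 acetate or pH 7 phosphate. Reported values are smoothed maximum ThT signals as a percentage of the hAMY-to-background range.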

[2] = target: hAM1 receptor (Homo sapiens, UniProt O60895+Q16602); test: cAMP assay for in vitro receptor activation, hAM1-R; type: cell-based; details: cAMP assay, hAM1 receptor; read-out: hAM1R EC50
Procedure, shortened: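 Read-out is intracellular cAMP as a measure of receptor activation. Cells stably overexpressing hAM1 were subcloned to a monoclonal line, then thawed and seeded at 8000 cells/well in DPBS with 0.05% casein and the phosphodiesterase inhibitor IBMX at 0.5 mM.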

[3] = target: T1, hAMY3 receptor (Homo sapiens, UniProt O60896+P30988); test: cAMP assay for in vitro receptor activation, hAMY3-R; type: cell-based; details: cAMP assay, hAMY3 receptor; read-out: hAMY3R EC50
T1 sequence (P30988 25-474): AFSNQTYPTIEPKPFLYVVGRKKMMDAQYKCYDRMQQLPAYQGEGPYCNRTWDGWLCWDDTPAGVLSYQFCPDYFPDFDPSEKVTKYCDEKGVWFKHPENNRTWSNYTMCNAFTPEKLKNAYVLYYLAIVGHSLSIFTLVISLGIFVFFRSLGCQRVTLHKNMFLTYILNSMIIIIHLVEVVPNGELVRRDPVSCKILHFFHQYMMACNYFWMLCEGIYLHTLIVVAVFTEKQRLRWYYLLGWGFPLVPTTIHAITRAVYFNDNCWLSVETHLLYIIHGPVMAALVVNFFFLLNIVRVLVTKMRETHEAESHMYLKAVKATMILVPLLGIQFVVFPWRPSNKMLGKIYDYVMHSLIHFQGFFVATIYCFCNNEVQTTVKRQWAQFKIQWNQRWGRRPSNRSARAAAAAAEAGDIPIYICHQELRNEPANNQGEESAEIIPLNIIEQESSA
T1 sequence (O60896 24-148 partner): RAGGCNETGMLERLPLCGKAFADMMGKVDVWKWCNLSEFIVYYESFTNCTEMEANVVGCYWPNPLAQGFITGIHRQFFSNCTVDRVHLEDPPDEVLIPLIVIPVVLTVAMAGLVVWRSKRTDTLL
Procedure, shortened: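 Receptor activation was measured as cAMP accumulation in a monoclonal cell line stably overexpressing hAMY3. Stimulation with graded doses lasted 30 min at room temperature in the presence of 0.5 mM IBMX, with human amylin as positive control.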

Chain of hAM1 receptor (Q16602 23-461): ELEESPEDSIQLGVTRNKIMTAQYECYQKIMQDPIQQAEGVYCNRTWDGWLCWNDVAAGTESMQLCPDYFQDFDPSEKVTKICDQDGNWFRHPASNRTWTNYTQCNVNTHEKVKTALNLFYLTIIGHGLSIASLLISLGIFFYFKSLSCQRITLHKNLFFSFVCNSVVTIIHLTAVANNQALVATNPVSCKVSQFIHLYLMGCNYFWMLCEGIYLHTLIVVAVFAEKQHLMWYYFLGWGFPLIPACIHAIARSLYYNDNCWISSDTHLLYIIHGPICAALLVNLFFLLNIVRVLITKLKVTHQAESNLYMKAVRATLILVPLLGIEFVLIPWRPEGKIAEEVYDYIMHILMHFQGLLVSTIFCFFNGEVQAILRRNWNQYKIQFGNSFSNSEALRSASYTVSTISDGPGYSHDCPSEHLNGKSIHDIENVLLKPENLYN
Chain of hAM1 receptor (O60895 43-175 partner): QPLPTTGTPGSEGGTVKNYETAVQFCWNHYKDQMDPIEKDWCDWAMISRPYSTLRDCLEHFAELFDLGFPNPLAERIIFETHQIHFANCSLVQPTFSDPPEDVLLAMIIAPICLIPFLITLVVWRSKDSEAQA

Row | SMILES | Max ThT signal (%) [1] [%] | EC50 [2] [µM] | EC50 [3] [nM]
1 | CC[C@H](C)[C@H](NC(=O)[C@H](CCC(N)=O)NC(=O)[C@H](Cc1c[nH]cn1)NC(=O)[C@H](C)NC(=O)[C@H](CC(C)C)NC(=O)[C@H](CCCNC(=N)N)NC(=O)[C@H](CCC(N)=O)NC(=O)[C@@H](NC(=O)[C@@H](NC(=O)[C@@H]1CSSC[C@H](NC(=O)[C@@H](N)CCCCN)C(=O)N[C@@H](CC(N)=O)C(=O)N[C@@H]([C@@H](C)O)C(=O)N[C@@H](C)C(=O)N[C@@H]([C@@H](C)O)C(=O)N1)[C@@H](C)O)C(C)C)C(=O)N[C@@H](Cc1ccc(O)cc1)C(=O)N[C@@H](CCC(N)=O)C(=O)N[C@@H](C)C(=O)N[C@H](C(=O)N[C@@H](CC(=O)O)C(=O)N[C@@H](CCCCN)C(=O)N[C@@H](CC(=O)O)C(=O)N[C@@H](CCCCN)C(=O)N[C@@H](CC(=O)O)C(=O)N[C@@H](CC(N)=O)C(=O)N[C@H](C(=O)N[C@@H](C)C(=O)N1CCC[C@H]1C(=O)N1CCC[C@H]1C(=O)N[C@H](C(=O)N[C@@H](CC(N)=O)C(=O)N[C@H](C(=O)NCC(=O)N[C@@H](CO)C(=O)N[C@@H](CC(N)=O)C(=O)NCC(=O)N1C[C@H](O)C[C@H]1C(N)=O)C(C)C)[C@@H](C)O)C(C)C)[C@@H](C)O [compound 114] (H-KCNTATCTVQRLAHQIYQATDKDKDNVAPPTNVGSNG[Hyp]-NH2; disulfide 2-7; N-terminus assumed) | 2.200 | > 5 | 0.022
2 | CC[C@H](C)[C@H](NC(=O)[C@H](CCC(N)=O)NC(=O)[C@H](Cc1c[nH]cn1)NC(=O)[C@H](C)NC(=O)[C@H](CC(C)C)NC(=O)[C@H](CCCNC(=N)N)NC(=O)[C@H](CCC(N)=O)NC(=O)[C@@H](NC(=O)[C@@H](NC(=O)[C@@H]1CSSC[C@H](NC(=O)CN)C(=O)N[C@@H](CCCNC(=N)N)C(=O)N[C@@H](Cc2c[nH]c3ccccc23)C(=O)NCC(=O)N[C@@H]([C@@H](C)O)C(=O)N1)[C@@H](C)O)C(C)C)C(=O)N[C@@H](Cc1ccc(O)cc1)C(=O)N[C@@H](CCC(N)=O)C(=O)N[C@@H](Cc1ccccc1)C(=O)N[C@H](C(=O)N[C@@H](CC(=O)O)C(=O)N[C@@H](CCCCN)C(=O)N[C@@H](CC(=O)O)C(=O)N[C@@H](CCCCN)C(=O)N[C@@H](CC(=O)O)C(=O)N[C@@H](CC(N)=O)C(=O)N[C@H](C(=O)N[C@@H](C)C(=O)N1CCC[C@H]1C(=O)N[C@@H](CCCNC(=N)N)C(=O)N[C@@H](CO)C(=O)N[C@@H](CCCCN)C(=O)N[C@H](C(=O)N[C@@H](CO)C(=O)N1CCC[C@H]1C(=O)N[C@@H](CCC(N)=O)C(=O)N[C@H](C(=O)N1C[C@H](O)C[C@H]1C(N)=O)[C@@H](C)O)[C@@H](C)CC)C(C)C)[C@@H](C)O [compound 150] (H-GCRWGTCTVQRLAHQIYQFTDKDKDNVAPRSKISPQT[Hyp]-NH2; disulfide 2-7; N-terminus assumed) | 18.200 | > 5 | 0.04
3 | CC[C@H](C)[C@H](NC(=O)[C@H](CCC(N)=O)NC(=O)[C@H](Cc1c[nH]cn1)NC(=O)[C@H](C)NC(=O)[C@H](CC(C)C)NC(=O)[C@H](CCCNC(=N)N)NC(=O)[C@H](CCC(N)=O)NC(=O)[C@@H](NC(=O)[C@@H](NC(=O)[C@@H]1CSSC[C@H](NC(=O)CN)C(=O)N[C@@H](CCCNC(=N)N)C(=O)N[C@@H](Cc2c[nH]c3ccccc23)C(=O)NCC(=O)N[C@@H]([C@@H](C)O)C(=O)N1)[C@@H](C)O)C(C)C)C(=O)N[C@@H](Cc1ccc(O)cc1)C(=O)N[C@@H](CCC(N)=O)C(=O)N[C@@H](Cc1ccccc1)C(=O)N[C@H](C(=O)N[C@@H](CC(=O)O)C(=O)N[C@@H](CCCCN)C(=O)N[C@@H](Cc1ccccc1)C(=O)N[C@@H](CCCCN)C(=O)N[C@@H](CC(=O)O)C(=O)N[C@@H](CC(N)=O)C(=O)N[C@H](C(=O)N[C@@H](C)C(=O)N1CCC[C@H]1C(=O)N[C@@H](CCCNC(=N)N)C(=O)N[C@@H](CO)C(=O)N[C@@H](CCCCN)C(=O)N[C@H](C(=O)N[C@@H](CO)C(=O)N1CCC[C@H]1C(=O)N[C@@H](CCC(N)=O)C(=O)N[C@H](C(=O)N1C[C@H](O)C[C@H]1C(N)=O)[C@@H](C)O)[C@@H](C)CC)C(C)C)[C@@H](C)O [compound 171] (H-GCRWGTCTVQRLAHQIYQFTDKFKDNVAPRSKISPQT[Hyp]-NH2; disulfide 2-7; N-terminus assumed) | 5.000 | > 5 | 0.064
4 | CC[C@H](C)[C@H](NC(=O)[C@H](CCC(N)=O)NC(=O)[C@H](Cc1c[nH]cn1)NC(=O)[C@H](C)NC(=O)[C@H](CC(C)C)NC(=O)[C@H](CCCNC(=N)N)NC(=O)[C@H](CCC(N)=O)NC(=O)[C@@H](NC(=O)[C@@H](NC(=O)[C@@H]1CSSC[C@H](NC(=O)[C@@H](N)CCCCN)C(=O)N[C@@H](CC(N)=O)C(=O)N[C@@H]([C@@H](C)O)C(=O)N[C@@H](C)C(=O)N[C@@H]([C@@H](C)O)C(=O)N1)[C@@H](C)O)C(C)C)C(=O)N[C@@H](Cc1ccc(O)cc1)C(=O)N[C@@H](Cc1ccccc1)C(=O)N[C@H](C(=O)N[C@@H](CC(=O)O)C(=O)N[C@@H](CCCCN)C(=O)N[C@@H](CC(=O)O)C(=O)N[C@@H](CCCCN)C(=O)N[C@@H](CC(=O)O)C(=O)N[C@@H](CC(N)=O)C(=O)N[C@H](C(=O)N[C@@H](C)C(=O)N1CCC[C@H]1C(=O)N1CCC[C@H]1C(=O)N[C@H](C(=O)N[C@@H](CC(N)=O)C(=O)N[C@H](C(=O)NCC(=O)N[C@@H](CO)C(=O)N[C@@H](CC(N)=O)C(=O)NCC(=O)N1C[C@H](O)C[C@H]1C(N)=O)C(C)C)[C@@H](C)O)C(C)C)[C@@H](C)O [compound 181] (H-KCNTATCTVQRLAHQIYFTDKDKDNVAPPTNVGSNG[Hyp]-NH2; disulfide 2-7; N-terminus assumed) | 8.800 | > 5 | 0.082
5 | CC[C@H](C)[C@H](NC(=O)[C@H](CCC(N)=O)NC(=O)[C@H](Cc1c[nH]cn1)NC(=O)[C@H](C)NC(=O)[C@H](CC(C)C)NC(=O)[C@H](CCCNC(=N)N)NC(=O)[C@H](CCC(N)=O)NC(=O)[C@@H](NC(=O)[C@@H](NC(=O)[C@@H]1CSSC[C@H](NC(=O)CN)C(=O)N[C@@H](CCCNC(=N)N)C(=O)N[C@@H]([C@@H](C)O)C(=O)NCC(=O)N[C@@H]([C@@H](C)O)C(=O)N1)[C@@H](C)O)C(C)C)C(=O)N[C@@H](Cc1ccc(O)cc1)C(=O)N[C@@H](CCC(N)=O)C(=O)N[C@@H](Cc1ccccc1)C(=O)N[C@H](C(=O)N[C@@H](CC(=O)O)C(=O)N[C@@H](CCCCN)C(=O)N[C@@H](Cc1ccccc1)C(=O)N[C@@H](CCCCN)C(=O)N[C@@H](CC(=O)O)C(=O)N[C@@H](CC(N)=O)C(=O)N[C@H](C(=O)N[C@@H](C)C(=O)N1CCC[C@H]1C(=O)N[C@@H](CCCNC(=N)N)C(=O)N[C@@H](CO)C(=O)N[C@@H](CCCCN)C(=O)N[C@H](C(=O)N[C@@H](CO)C(=O)N1CCC[C@H]1C(=O)N[C@@H](CCC(N)=O)C(=O)N[C@@H](Cc1c[nH]c2ccccc12)C(=O)N1C[C@H](O)C[C@H]1C(N)=O)[C@@H](C)CC)C(C)C)[C@@H](C)O [compound 185] (H-GCRTGTCTVQRLAHQIYQFTDKFKDNVAPRSKISPQW[Hyp]-NH2; disulfide 2-7; N-terminus assumed) | 2.800 | > 5 | 0.09
6 | CC[C@H](C)[C@H](NC(=O)[C@H](CCC(N)=O)NC(=O)[C@H](Cc1c[nH]cn1)NC(=O)[C@H](C)NC(=O)[C@H](CC(C)C)NC(=O)[C@H](CCCNC(=N)N)NC(=O)[C@H](CCC(N)=O)NC(=O)[C@@H](NC(=O)[C@@H](NC(=O)[C@@H]1CSSC[C@H](NC(=O)CN)C(=O)N[C@@H](CCCNC(=N)N)C(=O)N[C@@H]([C@@H](C)O)C(=O)NCC(=O)N[C@@H]([C@@H](C)O)C(=O)N1)[C@@H](C)O)C(C)C)C(=O)N[C@@H](Cc1ccc(O)cc1)C(=O)N[C@@H](CCC(N)=O)C(=O)N[C@@H](Cc1ccccc1)C(=O)N[C@H](C(=O)N[C@@H](CC(=O)O)C(=O)N[C@@H](CCCCN)C(=O)N[C@@H](Cc1ccccc1)C(=O)N[C@@H](CCCCN)C(=O)N[C@@H](CC(=O)O)C(=O)N[C@@H](CC(N)=O)C(=O)N[C@H](C(=O)N[C@@H](C)C(=O)N1CCC[C@H]1C(=O)N[C@@H](CCCNC(=N)N)C(=O)N[C@@H](CO)C(=O)N[C@@H](CCCCN)C(=O)N[C@H](C(=O)N[C@@H](CO)C(=O)N1CCC[C@H]1C(=O)N[C@@H](CCC(N)=O)C(=O)N[C@@H](Cc1ccc(O)cc1)C(=O)N1C[C@H](O)C[C@H]1C(N)=O)[C@@H](C)CC)C(C)C)[C@@H](C)O [compound 186] (H-GCRTGTCTVQRLAHQIYQFTDKFKDNVAPRSKISPQY[Hyp]-NH2; disulfide 2-7; N-terminus assumed) | 0.600 | > 5 | 0.091
